# Laboratory results: patent US20120101057A1, “COMBINED THERAPY OF COLORECTAL CARCINOMA” (INSTYTUT FARMACEUTYCZNY, priority 2009, published 2012)
# Key:
# [1] = system: murine colorectal cancer C38; experiment: tumour growth in mice with colorectal cancer C38 treated with 5-fluorouracil (1a); format: in vivo, Mice of C57BL/6 strain; conditions: for TGI / Tumours MEAN ± SD: C38, 28 day of experiment; for Tumours MEAN ± SD: 5-FU 150 mg/kg i.p., PRI-2191 2 ug/kg s.c., PRI-2205 10 μg/kg s.c.; for volume of tumours C38 in comparison with control: single agent
# colorectal cancer HT-29 = experiment: tumour growth in mice with colorectal cancer HT-29 treated with 5-fluorouracil; format: in vivo; conditions: for TGI / Tumours MEAN ± SD: HT-29, 49 day of experiment; for HT-29 tumour mass in comparison with control: single agent
# [2] = system: murine colorectal cancer C38; experiment: survival time and tumour growth in mice with colorectal cancer C38 treated with 5-FU (1b); format: in vivo; conditions: for ILS %: 5-FU 75 mg/kg i.p. day 1, PRI-2191 2, PRI-2205 10 μg/kg/day 3 times per week; for TGI (d20) %: day 20; for C38 tumour mass in comparison with control: single agent
# Description: Mice with colorectal cancer C38 were treated with 5-FU given in a single administration, intraperitoneally on day 1 at a dose of 75 mg/kg.
# [3] = system: murine colorectal cancer MC38/EGFP; experiment: burden of metastases in regional lymph nodes, MC38/EGFP fluorescence (1c); format: in vivo, mice
# Text: Cancer cells of murine colorectal cancer MC38/EGFP (cells expressing a protein of green fluorescence) were implanted subcutaneously in an amount of 1×10^6 cells/mouse. […] Compounds were given subcutaneously, 3 times a week. […] Then on day 59 of experiment, lymph nodes from mice of remaining were taken for analysis. Using NightOWL II LB 983 apparatus, photographs of isolated lymph nodes were taken in order to visualize cancer cells in sites of metastases.
# Intensity of the measured fluorescence is related to a burden of metastases (the number of cells with fluorescence).
# LoVo = experiment: antiproliferative activity of 5-fluorouracil combined with vitamin D analogues in vitro, 120 h; format: cell-based, human; set-up: key: +: sub-additive effect; ++: additive effect; +++: synergistic effect; −: antagonism; conditions: analogue 100 nM + 5-fluorouracil 1 μg/ml, 120-hours exposure
# Description: (§1) After 24 h culture, the cells of large intestine carcinoma were treated simultaneously with calcitriol or vitamin D analogues and 5-fluorouracil for 120 hours. The final concentration of vitamin D analogues was 100 nM, and of 5-fluorouracil—-1 μg/ml or 0.1 μg/ml. Statistical analysis of the obtained results of inhibition of proliferation was carried out by analysis of percent of inhibition of proliferation in individual combinations of compounds.
# (§2) Hypothetical value was calculated according to a formula: […]
# (§3) wherein: % H—hypothetical inhibition of proliferation by combination of compounds [Vo]; % cyt—inhibition of proliferation by 5-Fu alone [%]; % vit—inhibition of proliferation by calcitriol or cholecalciferol analogue alone [%];
# (§4) Additive effect occurs when the experimental and hypothetical value are similar, sub-additive effect occurs when experimental value is lower than hypothetical value but above value for a cytostatic alone, and antagonistic action—when a value determined for a cytostatic used alone is above experimental value for combination of both compounds. [Peters G. J. i wsp.: Pharmacol Ther 2000, 87, 227-253]
# HT-29 = experiment: as above; format: cell-based, human; set-up: key: +: sub-additive effect; ++: additive effect; +++: synergistic effect; −: antagonism; conditions: analogue 100 nM + 5-fluorouracil 0.1 μg/ml, 120-hours exposure
# Description: as §1, §2, §3, §4
# MC38/0 = experiment: as above; format: cell-based, mouse; set-up: key: +: sub-additive effect; ++: additive effect; +++: synergistic effect; −: antagonism; conditions: 120-hours exposure
# Description: After 24 h culture, the cells of large intestine carcinoma were treated simultaneously with calcitriol or vitamin D analogues and 5-fluorouracil for 120 hours. […] Statistical analysis of the obtained results of inhibition of proliferation was carried out by analysis of percent of inhibition of proliferation in individual combinations of compounds.
# as §2, §3, §4
# [4] = system: murine colorectal carcinoma C38; experiment: tumour growth in mice with murine colorectal carcinoma C38 treated with capecitabine; format: in vivo, Mice of C57BL/6 strain; conditions: for Tumours MEAN ± SD / TGI: C38; for tumour C38 mass in comparison with control: single agent
# CaCo-2 = experiment: antiproliferative activity of 5-fluorouracil combined with vitamin D analogues in vitro, 120 h; format: cell-based, human; set-up: key to Type of reaction between vitamin D analogues and 5-fluorouracil: +: sub-additive effect; ++: additive effect; +++: synergistic effect; −: antagonism; conditions: for Type of reaction between vitamin D analogues and 5-fluorouracil: CaCo-2, analogue 100 nM + 5-fluorouracil 1 μg/ml, 120-hours exposure
# Description: as §1, §2, §3, §4
# [5] = rats; cited from earlier work
# [6] = MC38/0, analogue 100 nM + 5-fluorouracil 0.1 μg/ml
# [7] = analogue 100 nM + 5-fluorouracil 0.01 μg/ml, cell line of this column unclear (MC38/0 or CaCo-2)
# [8] = 18 day of experiment, KCY 250 mg/kg/day oral, PRI-2191 1, PRI-2205 10 μg/kg/day s.c.
# [9] = analogue combined with capecitabine
Compound,TGI [1] [%],Tumours MEAN ± SD [1] [g],volume of tumours C38 in comparison with control [1],TGI (colorectal cancer HT-29) [%],Tumours MEAN ± SD (colorectal cancer HT-29) [g],HT-29 tumour mass in comparison with control (colorectal cancer HT-29),ILS % ([2]; C38) [%],TGI (d20) % ([2]; C38) [%],C38 tumour mass in comparison with control [2],Type of reaction between vitamin D analogues and 5-fluorouracil (LoVo),Type of reaction between vitamin D analogues and 5-fluorouracil (HT-29),Type of reaction between vitamin D analogues and 5-fluorouracil (MC38/0; [6]),Type of reaction between vitamin D analogues and 5-fluorouracil (MC38/0; [7]),"Tumours MEAN ± SD [4, 8] [g]",tumour C38 mass in comparison with control [4],Type of reaction between vitamin D analogues and 5-fluorouracil (CaCo-2),further results
"O=c1[nH]cc(F)c(=O)[nH]1 [5-FU, 5-fluorouracil]",84,0.19 ± 0.19,decreases in statistically significant manner volume of tumours C38 in comparison with control,47,1.23 ± 0.30,decreases in a statistically significant manner HT-29 tumour in comparison with control,21,64,decreases in a statistically significant manner C38 tumour mass in comparison with control,,,,,,,,
"C=C1/C(=C/C=C2\CCC[C@]3(C)[C@@H]([C@H](C)/C=C/[C@@H](O)C4CC4)CC[C@@H]23)C[C@@H](O)C[C@@H]1O [PRI-2205, (1S,3R,5E,7E,22E,24S)-24-cyclopropyl-9,10-secochol-5,7,10(19),22-tetraeno-1,3,24-triol]",29,1.06 ± 0.84,inhibits C38 tumours growth from 18 to 28 day of measurement,31,1.88 ± 0.78,did not influence tumour mass,2,0,does not influence tumour mass,+++,+++,+++,+++,0.81 ± 0.60,does not influence tumour mass,+++,"volume of tumours C38, combination with 5-FU in comparison with 5-FU ([1]; analogue combined with 5-FU): decreases in statistically significant manner volume of tumours also in comparison with 5-FU; metastases in regional lymph nodes (intensity of fluorescence), combined treatment with 5-FU ([3]; 5-FU 75 mg/kg i.p. with PRI-2191 1 μg/kg or PRI-2205 10 μg/kg s.c., day 59): did not influence the metastatic process; metastases in regional lymph nodes (fluorescence) versus control mice ([3]; analogue only, day 50): did not differ significantly; HT-29 tumour mass, combination with 5-FU in comparison with 5-FU alone (colorectal cancer HT-29; analogue combined with 5-FU): influences significantly also tumour mass in comparison with 5-FU alone; type of interaction in inhibition of HT-29 tumour growth (colorectal cancer HT-29; analogue combined with 5-FU): synergism; influence on survival time of mice treated with 5-FU ([2]; C38, analogue added to 5-FU, p<0.05): prolongs survival of mice treated with 5-FU; ILS Effect ([2]; C38, combination with 5-FU, survival time): synergistic; C38 tumour mass, combination with 5-FU in comparison with 5-FU ([2]; analogue combined with 5-FU): in a statistically significant manner decreases tumour mass also in comparison with 5-FU; tumour mass, combination with capecitabine in comparison with capecitabine alone [4, 9]: influences significantly tumour mass in comparison with capecitabine alone; type of interaction in inhibition of tumour growth with capecitabine [4, 9]: synergism"
"C=C1/C(=C\C=C2/CCC[C@]3(C)[C@@H]([C@H](C)CCCC(C)(C)O)CC[C@@H]23)C[C@@H](O)C[C@@H]1O [CALCITRIOL, 1,25-dihydroxycholekalciferol]",,,,,,,,,,+++,+++,+++,+++,,,−,"interaction with 5-fluorouracil (CaCo-2; Caco-2 cell line, 120-hour exposure): antagonism"
"C=C1/C(=C\C=C2/CCC[C@]3(C)[C@@H]([C@H](C)/C=C/[C@@H](O)C4CC4)CC[C@@H]23)C[C@@H](O)C[C@@H]1O [PRI-2201, (1S,3R,5Z,7E,22E,24S)-24-cyclopropyl-9,10-secochola-5,7,10(19),22-tetraeno-1,3,24-triol]",,,,,,,,,,+++,+++,+++,+++,,,+++,lesser influence on calcium metabolism than calcitriol [5]: 100-200 fold
"CCCCCOC(=O)Nc1nc(=O)n([C@@H]2O[C@H](C)[C@@H](O)[C@H]2O)cc1F [KCY, capecitabine]",,,,,,,,,,,,,,0.41 ± 0.33,decreases tumour C38 mass in comparison with control,,TGI ([4]; 18 day of experiment): 47%; TGI ([4]; 29 day of experiment): 35%; Tumours MEAN ± SD ([4]; 29 day of experiment): 1.65 ± 1.39 g
